# Values joined by “and” are separate entries in the source; they are usually repeats but may differ in a detail not shown here. Identical values can stand only once. “Also recorded” adds a separate entry of the source.
# What was measured:
# [1] = system: P. falciparum (Dd2 strain); assay: ABS P. falciparum growth inhibition, SYBR Green I assay, 72 h endpoint; type: cell-based, Plasmodium falciparum; conditions: for EC50: Plasmodium falciparum, DD2, Table 2, enantiopure, SYBR Green I, 72 h endpoint, average ± S.E.M, read-out: Dd2 strain P. falciparum growth inhibition EC50
# Description: Parasites were maintained in O-positive human erythrocytes (Grifols, Memphis, TN, USA) at 5% hematocrit in RPMI 1640 medium supplemented with 5 g L^−1 Albumax I (Gibco Life Technologies), 2 g L^−1 glucose (Sigma-Aldrich), 2.3 g L^−1 sodium bicarbonate (Sigma-Aldrich), 370 μM hypoxanthine (Sigma-Aldrich), 25 mM HEPES, and 20 mg L^−1 gentamicin (Gibco Life Technologies). The parasites were kept at 37 °C under reduced-oxygen conditions (5% CO2, 5% O2, and 90% N2).
# (§1) […]. MMV008138 (1) was used as control. The percentage of growth was normalized to that of untreated control parasites in the presence of 0.1% DMSO. Background determinations were made using uninfected erythrocytes. Two or more independent experiments in duplicate were performed. The EC50 values were calculated with GraphPad Prism 9 (GraphPad Software Ltd.) using nonlinear regression curve fitting with variable slope (four parameters) and represent the average and their standard error of the mean (S.E.M.). To assess whether 20a–e specifically targeted the apicoplast, the recovery of growth in the presence of inhibitor and isopentenyl diphosphate (IPP) was performed as described previously.[8] Briefly, parasites were grown in the presence or absence of 200 μM IPP along with a serial dilution (10 μM to 0.01 μM) or single concentration (10 or 20 μM) of drug. […] All conditions were set in 96-well half area plates using highly synchronous ring-stage parasite cultures (100 μL per well at 1% hematocrit and 1% parasitemia) and incubated for 72 h under normal culture conditions. Parasite growth was measured by the SYBR green I assay.
# [2] = system: P. falciparum (Dd2 strain); assay: Metabolic rescue of parasite growth by isopentenyl diphosphate (IPP) supplementation; type: cell-based, Plasmodium falciparum
# Description: as §1
# in vitro [3] = conditions: female, CD-1, mouse, microsomes, pH 7.4
# Description: Mouse microsomal stability of 20a, 20c, 20d was first assessed in our laboratory. […]
# and coumarin were used as controls . Microsomal stability was assessed by ultra-performance liquid chromatography and high -resolution mass spectrometry […]
# MA). Potassium phosphate monobasic, potassium phosphate dibasic, and coumarin were purchased from Sigma-Aldrich (St. Louis, MO). Briefly, compound incubations were carried out by the addition of mouse liver microsomes (0.5 mg/ml) in 0.05 M potassium phosphate buffer (pH 7.4), solution A and B, and preincubated at 37°C for 5 min. Control experiments were also carried out in the absence of NADPH solution A and B. Coumarin reaction was used as positive control. Reactions were terminated by adding acetonitrile. Sample analysis was performed on an IonKey/MS system composed of an ACQUITY UPLC M-Class, the ionKey source, and an iKey BEH C18 130 Å 1.7 µm 150 µm x 50 mm column coupled to a Synapt G2-Si mass spectrometer (Waters Corporation, Milford, MA, USA). Separation was accomplished using a binary gradient system consisting of 0.1% formic acid in water (mobile phase A) and 0.1% formic acid in acetonitrile (mobile phase B). The linear gradient was programmed as follows: 0-3 min 1% B, 3- […]
# was 3 µL/min, the injection volume was 3 µL in full loop mode, and the iKey temperature was set at 40°C. MS analyses were performed acquiring in MSE mode from 80 to 1500 m/z in positive electrospray ionization mode with a capillary voltage of 3 kV. Data were collected in two channels all the time: low collision energy (6.0 V), for the molecular ions, and high collision energy (15-40 V), for product ions. The source temperature was set at 110°C. Leucine […]
# scan at 20 s intervals. Infusion flow rate for lock mass was 1 μL/min. The microsomal stability was determined using MassLynx software (Waters Corporation, Milford, MA, USA). Relative amounts were calculated by comparing the peak area of each evaluated compound at time 0 minutes to its corresponding area at times 45, 90 and 180 minutes to return a ratio.
# in vitro [4] = conditions: male, mouse, microsomes; for % remaining, Replicate 1 / Replicate 2: 1 µM; for remaining at 0.5 min, 1 µM / remaining at 5 min, 1 µM / remaining at 10 min, 1 µM / remaining at 0.25 h, 1 µM / remaining at 20 min, 1 µM / remaining at 0.5 h, 1 µM: % remaining, Replicate 1 / Replicate 2
# Description: Metabolic stability of 1 was studied in pooled male mouse liver microsomes (final concentration 0.5 mg/mL, 5 mM MgCl 2, 100 mM phosphate buffer). The final concentration of test […]
# The mixture was pre-warmed 37°C for 5 min before addition of 50 μL of 10 mM NADPH solution at the final concentration of 1 mM and carried out at 37°C. 50 μL of ultra-pure H2O was used instead of NADPH solution in the […]
# negative control. […] Drug […]
# concentrations were determined using triple quad LC-MS (Table S5).
# (§2) (1 picture or pasted object on this page, not shown here)
# in vivo = conditions: mouse
# Description: 3. Pharmacokinetics of 1 in mice
# Pharmacokinetic analysis of 1 in mice was performed by Pharmaron (Beijing, China). Three mice each (23 ± 1 g) were used for oral (40 mg/kg, gavage, conscious) and for IV (10 mg/kg, lateral tail vein with anesthesia) administration. The vehicle for both routes wa s 20% DMSO, 60% PEG400 and 20% SBE-β-CD (30% w/v) in water. Stock concentrations were 4 mg/mL (both oral and IV respectively), and mice were dosed at 10.0 and 2.5 mL/kg (oral and IV respectively).
# Quantitation was performed by triple-quad LC-MS.
# [5] = system: Plasmodium berghei ANKA expressing luciferase (PbGFP-Luccon); assay: In vivo efficacy in P. berghei-infected mice (luminescence on Day 7)
# Description: 2. In vivo efficacy studies of 1 (NYU) in P. berghei-infected mice (po and iv) Efficacy of 1 in P. berghei-infected mice was assessed at the Anti-Infectives Core Facility, Department of Microbiology, Grossman School of Medicine, New York University.
# A. Oral Administration Protocol
# Three groups of five female Swiss Webster mice weighing 25 to 30 g were used for vehicle […]
# berghei ANKA expressing luciferase (PbGFP-Luccon) obtained from a donor infected mouse.10 […]
# 2 to 6 and imaged on day 7.
# Figure S1. Dosing and imaging timeline of P. berghei-infected mice. […]
# Day 7 as described in the text.
# The vehicle for all groups was 0.5% (hydroxypropyl)methyl cellulose, 0.5% Tween-80.
# For the surviving mice, o n day 7 after infection, mice were anesthetized by inhalation of isofluorane and injected via i.p. with 150 mg/kg of luciferase substrate dissolved in PBS (D-Luciferin Potassium Salt , Gold Biotechnology ).
# Mice were imaged 5 to 10 min after inj ection of luciferin using an IVIS imager (Lumina II In Vivo Imaging System; Perkin -Elmer). The data acquisition and analysis were performed with LivingImage (Xenogen). Accumulated light intensity was measured in each mouse to determine the baseline infection levels before treatment .
# as §2
# B. IV Administration Protocol
# One group of four female Swiss Webster mice weighing 25 to 30 g were used for vehicle control, and groups of five mice were used for 1 treatment (IV, 2 x 30 mg/kg/d) and the positive […]
# On Day 0, mice were infected via intraperitoneal (i.p.) […]
# from a donor infected mouse. 10 As shown below in Figure S2 (and legend), mice were treated […]
# Figure S2. Dosing and imaging timeline of P. berghei-infected mice. Vehicle and 1 (30 mpk) treatments were administered IV twice -daily on Days 2-6. […]
# administered i .p. once-daily. Mice were imaged on Day 7, as described in the text.
# The vehicle for this study was 30%PEG, 40% Captisol (30%w/v solution).
# Table S2. Luminescence Data after background subtraction for IV dosing of Vehicle, 1, and IP […]
# Table S9. Concentration of 20c vs time in mice. […]
# Figure S6. Dosing and imaging timeline of P. berghei-infected mice. […]
# [6] = iv, 10 mg/kg, plasma concentration
# [7] = po, 40 mg/kg, plasma concentration
# [8] = Table S10, 40 mg/kg 1 x daily PO Days 2-6, imaged Day 7
structure (smiles),measurement,setting,value
O=C(O)[C@@H]1Cc2c([nH]c3cccc(F)c23)[C@@H](c2ccc(Cl)cc2Cl)N1 [Compound 20a],EC50,[1],451 ± 28 nM
same,% recovery (200 μM IPP),[2]; drug at 2.5 μM,100%@2.5 μM
same,half-life,in vitro [3],~0.167 h
O=C(O)[C@@H]1Cc2c([nH]c3cc(F)ccc23)[C@@H](c2ccc(Cl)cc2Cl)N1 [Compound 20c],EC50,[1],501 ± 47 nM
same,% recovery (200 μM IPP),[2]; drug at 2.5 μM,100%@2.5 μM
same,"% remaining, Replicate 1 / Replicate 2",in vitro [4]; 5 min,105.2%
same,"% remaining, Replicate 1 / Replicate 2",in vitro [4]; 10 min,105.5%
same,"% remaining, Replicate 1 / Replicate 2",in vitro [4]; 0.25 h,100.5%
same,"% remaining, Replicate 1 / Replicate 2",in vitro [4]; 20 min,100.4%
same,"% remaining, Replicate 1 / Replicate 2",in vitro [4]; 0.5 h,85.7%
same,"remaining at 0.5 min, 1 µM",in vitro [4],100%
same,"remaining at 5 min, 1 µM",in vitro [4],90.9%
same,"remaining at 10 min, 1 µM",in vitro [4],91.4%
same,"remaining at 0.25 h, 1 µM",in vitro [4],84.7%
same,"remaining at 20 min, 1 µM",in vitro [4],85.9%
same,"remaining at 0.5 h, 1 µM",in vitro [4],95.2%
same,AUC(0-inf),"in vivo; iv, 10 mg/kg",49.6 µM·h
same,AUC(0-t),"in vivo; iv, 10 mg/kg",48.7 µM·h
same,C0,"in vivo; iv, 10 mg/kg",34.5 µM
same,clearance,"in vivo; iv, 10 mg/kg",8.85 mL/min/kg
same,tlast,"in vivo; iv, 10 mg/kg",24 h
same,concentration at 24 h,"in vivo; iv, 10 mg/kg, Cmin",0.1 ± 0.1 µM
same,concentration at 0.083 h,in vivo; [6],33.3 µM
same,concentration at 0.25 h,in vivo; [6],30.9 ± 4 µM
same,concentration at 0.5 h,in vivo; [6],14.4 ± 4.1 µM
same,concentration at 1 h,in vivo; [6],9.7 ± 2 µM
same,concentration at 2 h,in vivo; [6],3.3 ± 1.5 µM
same,concentration at 4 h,in vivo; [6],1.4 ± 0.4 µM
same,concentration at 8 h,in vivo; [6],1.4 ± 0.3 µM
same,concentration at 24 h,in vivo; [6],0.1 ± 0.1 µM
same,half-life,"in vivo; iv, 10 mg/kg, t1/2",4.96 h
same,AUC0-inf,"in vivo; po, 40 mg/kg",114 µM·h
same,AUC(0-inf),"in vivo; po, 40 mg/kg",114 µM·h
same,AUC(0-t),"in vivo; po, 40 mg/kg",110 µM·h
same,Cmax,"in vivo; po, 40 mg/kg",19.9 ± 8.1 µM
same,Tmax,"in vivo; po, 40 mg/kg",0.5 h
same,oral AUC0-inf higher than that of 1,"in vivo; po, 40 mg/kg",30%
same,tlast,"in vivo; po, 40 mg/kg",24 h
same,bioavailability,"in vivo; po, 40 mg/kg, % F",58%
same,bioavailability,"in vivo; po, 40 mg/kg, %F",57.8%
same,concentration at 24 h,"in vivo; po, 40 mg/kg, Cmin",0.6 ± 0.6 µM
same,concentration at 0.25 h,in vivo; [7],19.8 ± 8.1 µM
same,concentration at 0.5 h,in vivo; [7],19.9 ± 3.2 µM
same,concentration at 1 h,in vivo; [7],13.9 ± 10.8 µM
same,concentration at 2 h,in vivo; [7],8.8 ± 5.9 µM
same,concentration at 4 h,in vivo; [7],10 ± 3.7 µM
same,concentration at 8 h,in vivo; [7],3.9 ± 0.7 µM
same,concentration at 24 h,in vivo; [7],0.6 ± 0.06 µM
same,half-life,"in vivo; po, 40 mg/kg, t 1/2",5.2 h
same,half-life,"in vivo; po, 40 mg/kg, t1/2",5.17 h
same,reduction of luminescence relative to vehicle control,"[5]; 40 mg/kg po Days 2-6, Day 7",did not reduce luminescence
same,reduction in parasitemia / efficacy,"[5]; P. berghei mouse model, oral dosing (20c 5 × 40 mg per kg per day)",no reduction in parasitemia; also recorded: not efficacious
same,Luminescence after background subtraction AVG,[5]; [8],9.7E+06
same,"Luminescence after background subtraction, individual mice",[5]; [8],6.51E+05 and 2.35E+06 and 3.10E+06 and 4.05E+05 and 1.33E+06
O=C(O)[C@@H]1Cc2c([nH]c3c(F)cccc23)[C@@H](c2ccc(Cl)cc2Cl)N1 [Compound 20d],loss of growth inhibition potency (EC50) relative to 1,[1]; Dd2 strain,≤ 3 fold
same,EC50,[1],717 ± 73 nM
same,% recovery (200 μM IPP),[2]; drug at 10 μM,100%@10 μM
same,"% remaining, Replicate 1 / Replicate 2",in vitro [4]; 5 min,56.5%
same,"% remaining, Replicate 1 / Replicate 2",in vitro [4]; 10 min,41.8%
same,"% remaining, Replicate 1 / Replicate 2",in vitro [4]; 0.25 h,31.5%
same,"% remaining, Replicate 1 / Replicate 2",in vitro [4]; 20 min,28.2%
same,"% remaining, Replicate 1 / Replicate 2",in vitro [4]; 0.5 h,25.1%
same,"remaining at 0.5 min, 1 µM",in vitro [4],100%
same,"remaining at 5 min, 1 µM",in vitro [4],61.1%
same,"remaining at 10 min, 1 µM",in vitro [4],42.6%
same,"remaining at 0.25 h, 1 µM",in vitro [4],34.3%
same,"remaining at 20 min, 1 µM",in vitro [4],30.3%
same,"remaining at 0.5 h, 1 µM",in vitro [4],24.8%

# Reference: publication PMC12378621, “Benzo-ring modification on Malaria Box hit MMV008138: effects on antimalarial potency and microsomal stability” (RSC Medicinal Chemistry, 2025)
